≈ marks a conversion by molar mass, not a printed value.
Columns and labels:
[1] = Acute toxicity in the guinea pig by esophageal administration; assay type: in vivo
Procedure: (§1) The compound was tested for acute toxicity by several modes of administration in four species, namely mice, rat, guinea pig, and rabbit. […] The results are given below in Tables 3, 4, 5 and 6.

[2] = Acute toxicity in the rabbit by esophageal administration; assay type: in vivo
Procedure: as §1

General safety statement = details: statement in the description
[3] = Acute toxicity by several modes of administration in four species; assay type: in vivo, and rabbit; details: mice, rat, guinea pig, rabbit
Procedure: as §1

[4] = Teratogenetic study, mouse; assay type: in vivo; details: 250 mg/kg/day oral, 3rd to 13th days
Procedure: (§2) In view of the favourable results on chronic toxicity, a teratogenic study was conducted with male and female mice and rats.
a. Animal Species: Mouse, Male and female mice housed together for 10
Oral treatment from 3rd day to 13th days.

[5] = test system: five strains of Vibrio cholerae; test: In vitro effect on five strains of Vibrio cholerae (summary)
[6] = Subacute toxicity in female rats; assay type: in vivo, rat; details: 2 g/kg/day by gastric lavage for 21 days
[7] = Teratogenic study with male and female mice and rats; assay type: in vivo
Procedure: as §2

[8] = Acute toxicity in the rat; assay type: in vivo; details: for Dead/Treated within 21 days / Body weight (m ± SEM) in g. start / Body weight (m ± SEM) in g. Termination: First Experiment; for Body weight (m ± SEM) in g. Termination: Student's t test: t 0.05
Procedure: as §1

[9] = Chronic toxicity in the female mouse; assay type: in vivo; details: for Dead/Treated / Body Weight in g (m ± SE) Start / Body Weight in g (m ± SE) Termination: gastric lavage, 18 weeks; for Fresh Organ-to-Body-Weight Ratio, Heart / Fresh Organ-to-Body-Weight Ratio, Kidneys / Fresh Organ-to-Body-Weight Ratio, Liver / Fresh Organ-to-Body-Weight Ratio, Lungs: m ± SE, 4 animals; for Blood Glucose / SGOT / SGPT: mean of 6 animals, 24 hours after last dose
Source text: In view of the favourable sub-acute toxicity, the chronic toxicity in female mice was studied.

Treponema hyodysenteriae = test: In vitro test against Treponema hyodysenteriae (MIC, MBC); assay type: cell-based; details: Brachyspira hyodysenteriae, lowest concentration in a dilution series where growth is inhibited, read-out: minimum inhibitory concentration
Procedure: D was tested in vitro against Treponema hyodysenteriae by a known method. The minimum inhibitory concentration (the lowest concentration of compound in a dilution series where growth is inhibited) was 0.1 mcg/ml. The minimum bactericidal concentration (the lowest concentration of compound in which no viable treponemes are observed upon dilution and subculture from the broth onto blood agar plates) was greater than 0.1 mcg/ml but less than 1 mcg/ml.

[10] = Acute toxicity in female mice; assay type: in vivo
Procedure: as §1

Teratogenetic study, rat = assay type: in vivo; details: 250 mg/kg/day oral, same conditions as mouse
Procedure: as §2
b. Animal Species. Rat. Same experimental conditions as with the mouse.

[11] = Subacute toxicity in the mouse; assay type: in vivo; details: for SGOT / SGPT: 24 hrs. after last dose
Procedure: In view of the favourable acute toxicity data, the compound was administered orally in sub-acute, but relatively large, doses to mice and rats for 15 days. Data were collected on the effects on death rate, weight, liver, and kidneys.

[12] = Second Experiment, F, esophageal, 4000 mg/kg
[13] = Second Experiment, F, intraperitoneal, 500 mg/kg
[14] = Second Experiment, M, esophageal, 4000 mg/kg
[15] = Second Experiment, M, intraperitoneal, 500 mg/kg
[16] = 500 mg/kg/day by gastric lavage for 15 days
[17] = in adraganth gum, 1 g/kg/day for 15 days

With `CCC(C)c1cnc(CC(C)C)c(=O)n1O` [D, D-aspergillic acid] the “Dead/Treated within 21 days” value ([1]; 500 mg/kg) was 0/4, the “Dead/Treated within 21 days” value ([1]; 1000 mg/kg) was 1/4 and the “Dead/Treated within 21 days” value ([1]; 2000 mg/kg) was 5/6. For the same molecule, the “Dead/Treated within 21 days” value ([1]; 4000 mg/kg) was 6/6, the “Dead/Treated within 7 days” value ([2]; 500 mg/kg) was 0/2 and the “Body Weight in g. start” value ([2]; 500 mg/kg, start) was 2000 to 2100 g. The “Dead/Treated within 7 days” value ([2]; 1000 mg/kg) was 0/4, the “Body Weight (m ± SE) in g. start” value ([2]; 1000 mg/kg, start) was 2037 ± 104.3 g and the “Body Weight (m ± SE) in g. Termination” value ([2]; 1000 mg/kg, termination) was 1922.5 ± 71.5 g. The “Dead/Treated within 7 days” value ([2]; 2000 mg/kg) was 0/2, the “dead out of treated animals, within 4 days (footnote)” value ([2]; 2000 mg/kg, within 4 days) was “two dead out of seven treated animals” and the “nitrogenic (so in the source)” value (General safety statement) was “not nitrogenic”. The acute toxicity [3] was “low order of toxicity”, the “Body Weight of Foetuses in g (m ± SE)” value [4] was 1.42 ± 0.05 g and the “No. of Foetuses with malformations” value [4] was 0. For the same molecule, the “No. of living Foetuses per Delivery (m ± SE)” value [4] was 10.3 ± 0.6, the “Pregnant/Treated Animals” value [4] was 3/10 and the “growth of 3 of the organisms” value ([5]; 10 mcg/ml, after 48 hours) was “no growth”. For the same molecule, the “growth of the remaining two organisms” value ([5]; 100 mcg/ml) was “only marginal growth”, the “Average Percent Weight of Fresh Organs, Kidneys” value ([6]; 5 animals, NS) was 1.04 ± 0.03% and the “Average Percent Weight of Fresh Organs, Liver” value ([6]; 5 animals, NS) was 4.54 ± 0.10%. For the same molecule, the “Average Percent Weight of Fresh Organs, Lung” value ([6]; 5 animals, NS) was 1.07 ± 0.09%, the “Body Weight in g (m ± SE) Start” value ([6]; start) was 204.1 ± 2.0 g and the “Body Weight in g (m ± SE) Termination” value ([6]; termination) was 210.6 ± 9.6 g. The Dead/Treated ([6]; D, death caused by a mistake in esophagus incannulation) was 1/6, the “number of young delivered live at birth” value [7] was “comparable with controls” and the malformations ([7]; either group) was “No malformations”. For the same molecule, the “Dead/Treated within 7 days” value ([8]; Cumulative data regardless of sex, esophageal, 4000 mg/kg) was 0/16, the “Dead/Treated within 7 days” value ([8]; Cumulative data regardless of sex, intraperitoneal, 500 mg/kg) was 4/16 and the “Dead/Treated within 21 days” value ([8]; F, endoperitoneal, 500 mg/kg) was 2/4. The “Body weight (m ± SEM) in g. start” value ([8]; F, endoperitoneal, 500 mg/kg) was 206.2 ± 8.7 g, the “Dead/Treated within 21 days” value ([8]; F, esophageal, 4000 mg/kg) was 0/4 and the “Body weight (m ± SEM) in g. start” value ([8]; F, esophageal, 4000 mg/kg) was 201.2 ± 4.2 g. The “Body weight (m ± SEM) in g. Termination” value ([8]; F, esophageal, 4000 mg/kg) was 238.2 ± 12.1 g, the “Dead/Treated within 21 days” value ([8]; M, endoperitoneal, 500 mg/kg) was 1/4 and the “Body weight (m ± SEM) in g. start” value ([8]; M, endoperitoneal, 500 mg/kg) was 234.0 ± 6.2 g. The “Body weight (m ± SEM) in g. Termination” value ([8]; M, endoperitoneal, 500 mg/kg) was 314.3 ± 10.3 g, the “Dead/Treated within 21 days” value ([8]; M, esophageal, 4000 mg/kg) was 0/4 and the “Body weight (m ± SEM) in g. start” value ([8]; M, esophageal, 4000 mg/kg) was 234.5 ± 13.8 g. For the same molecule, the “Body weight (m ± SEM) in g. Termination” value ([8]; M, esophageal, 4000 mg/kg) was 288.7 ± 13.8 g, the “Dead/Treated within 7 days” value [8, 12] was 0/4 and the “Body weight (±SE) in g. start” value [8, 12] was 252.0 ± 16.6 g. The “Body weight (±SE) in g. Termination” value [8, 12] was 253.5 ± 12.1 g, the “Dead/Treated within 7 days” value [8, 13] was 0/4 and the “Body weight (±SE) in g. start” value [8, 13] was 232.5 ± 5.9 g. For the same molecule, the “Body weight (±SE) in g. Termination” value [8, 13] was 218.2 ± 7.0 g, the “Dead/Treated within 7 days” value [8, 14] was 0/4 and the “Body weight (±SE) in g. start” value [8, 14] was 222.5 ± 6.2 g. For the same molecule, the “Body weight (±SE) in g. Termination” value [8, 14] was 231.7 ± 15.7 g, the “Dead/Treated within 7 days” value [8, 15] was 2/4 and the “Body weight (±SE) in g. start” value [8, 15] was 226.2 ± 6.8 g. The “Urine Amount excreted by 6 animals in 6 hours” value ([9]; 250 mg/kg/day) was 6.5 mL, the Dead/Treated ([9]; 250 mg/kg/day) was 0/10 and the “Body Weight in g (m ± SE) Start” value ([9]; 250 mg/kg/day) was 27.3 ± 0.5 g. For the same molecule, the “Body Weight in g (m ± SE) Termination” value ([9]; 250 mg/kg/day) was 26.7 ± 0.7 g, the “Fresh Organ-to-Body-Weight Ratio, Heart” value ([9]; 250 mg/kg/day) was 0.60 ± 0.08 and the “Fresh Organ-to-Body-Weight Ratio, Kidneys” value ([9]; 250 mg/kg/day) was 0.87 ± 0.08. The “Fresh Organ-to-Body-Weight Ratio, Liver” value ([9]; 250 mg/kg/day) was 4.57 ± 0.25, the “Fresh Organ-to-Body-Weight Ratio, Lungs” value ([9]; 250 mg/kg/day) was 0.731 ± 0.035 and the “Blood Glucose” value ([9]; 250 mg/kg/day) was 1.10. For the same molecule, the SGOT ([9]; 250 mg/kg/day) was 118 Units/ml, the SGPT ([9]; 250 mg/kg/day) was 5 Units/ml and the “Urine Amount excreted by 6 animals in 6 hours” value ([9]; 500 mg/kg/day) was 7 mL. For the same molecule, the Dead/Treated ([9]; 500 mg/kg/day) was 2/10, the “Body Weight in g (m ± SE) Start” value ([9]; 500 mg/kg/day) was 30.4 ± 0.9 g and the “Body Weight in g (m ± SE) Termination” value ([9]; 500 mg/kg/day) was 30.0 ± 0.7 g. The “Fresh Organ-to-Body-Weight Ratio, Heart” value ([9]; 500 mg/kg/day) was 0.47 ± 0.02, the “Fresh Organ-to-Body-Weight Ratio, Kidneys” value ([9]; 500 mg/kg/day) was 1.07 ± 0.04 and the “Fresh Organ-to-Body-Weight Ratio, Liver” value ([9]; 500 mg/kg/day) was 4.66 ± 0.91. The “Fresh Organ-to-Body-Weight Ratio, Lungs” value ([9]; 500 mg/kg/day) was 1.011 ± 0.110, the “Blood Glucose” value ([9]; 500 mg/kg/day) was 1.06 and the SGOT ([9]; 500 mg/kg/day) was 159 Units/ml. The SGPT ([9]; 500 mg/kg/day) was 6 Units/ml, the MIC (Treponema hyodysenteriae) was 0.1 µg/mL (≈ 0.446 µM) and the “Dead/Treated Animals after 7 days” value ([10]; endoperitoneal, 250 mg/kg) was 0/18. For the same molecule, the “Dead/Treated Animals after 7 days” value ([10]; endoperitoneal, 500 mg/kg) was 6/12, the “Dead/Treated Animals after 2 days” value ([10]; endoperitoneal, 1000 mg/kg, 2 days) was 6/6 and the “Dead/Treated Animals after 7 days” value ([10]; endoperitoneal, 1000 mg/kg) was 6/6. For the same molecule, the “Dead/Treated Animals after 1 day” value ([10]; endoperitoneal, 2000 mg/kg, 1 day) was 6/6, the “Dead/Treated Animals after 7 days” value ([10]; endoperitoneal, 2000 mg/kg) was 6/6 and the “Dead/Treated Animals after 7 days” value ([10]; esophageal, 1000 mg/kg) was 0/12. The “Dead/Treated Animals after 7 days” value ([10]; esophageal, 2000 mg/kg) was 0/12, the “Dead/Treated Animals after 4 days” value ([10]; esophageal, 4000 mg/kg, 4 days) was 1/12 and the “Dead/Treated Animals after 7 days” value ([10]; esophageal, 4000 mg/kg) was 1/12. The “Body Weight of Foetuses in g (m ± SE)” value (Teratogenetic study, rat) was 7.08 ± 0.19 g, the “No. of Foetuses with malformations” value (Teratogenetic study, rat) was 0 and the “No. of living Foetuses per Delivery (m ± SE)” value (Teratogenetic study, rat) was 10.8 ± 0.86. For the same molecule, the “Pregnant/Treated Animals” value (Teratogenetic study, rat) was 7/10, the “% Body Weight Change” value [11, 16] was -8.1 ± 3.9% and the Dead/Treated [11, 16] was 0/10. The “Fresh Organ-to-Body Weight Ratio, Kidneys” value [11, 16] was 1.5 ± 0.1, the “Fresh Organ-to-Body Weight Ratio, Liver” value [11, 16] was 5.9 ± 0.3 and the “% Body Weight Change” value ([11]; in H2O, 1 g/kg/day for 15 days) was 18.5 ± 0.75%. For the same molecule, the Dead/Treated ([11]; in H2O, 1 g/kg/day for 15 days) was 2/12, the “% Body Weight Change” value [11, 17] was 16.27 ± 1.31% and the Dead/Treated [11, 17] was 3/12. For the same molecule, the SGOT ([11]; in adraganth gum) was 132 Units/ml, the SGPT ([11]; in adraganth gum) was 10 Units/ml and the SGOT ([11]; in water) was 124 Units/ml. For the same molecule, the SGPT ([11]; in water) was 9 Units/ml.
